This is an account of results in US20250090557A1 (priority 2020, published 2025).

In data set [1] the test system is SARS-CoV-2. As to the kind of experiment: SARS-CoV-2 infection of HEK293T-hACE2 cells (flow cytometry). The class given is cell-based. Conditions: HEK293T-hACE2, 100 nM, 72 h.
Data set [2] concerns SARS-CoV-2. The data set is classed as cell-based.
Data set [3] deals with cleaved caspase 3. The data set is classed as cell-based, human.
The subject of data set [4] is SARS-CoV-2. Briefly: Post-exposure prophylaxis in two household-exposed parents (case report). The class given is in vivo, human. The source says:
FIG. 8-a show the timeline of exposure, symptoms and diagnostic tests in household. Two parents [[…], A1 with history of chronic myelogenous leukemia (CML) and healthy parent 39 years, A2] were notified on Dec. 5, 2020 [defined as day 5 (D5)], that the schoolteacher (T1) of their child (C1) tested positive for SARS-CoV-2 and developed symptoms of Covid-19. C1 had 6-h exposure to T1 on November 30 (with masks) (D0). The family had no other exposure to any other person between November 20-30 (D-10 to D0) given Thanksgiving Day on November 26 (D-4). Several children and parents from the same school class were infected with Covid-19 within the first 2 weeks of December. C1 developed fever (100.4° F.;38° C.) and fatigue 2.5 days after exposure (DO) that lasted 3 days (D2-D5) and remained asymptomatic since then. The second child (C2) was asymptomatic until D12 when they developed fever (100.4° F.;38° C.), fatigue and coryza on D12-D14. A1 and A2 started Mito-MES on D4. […] A1, A2, C1 and C2 had fifteen (in total) negative NP SARS-CoV-2 PCR and each parent had 3 negative SARS-CoV-2 IgG serology over a period of 6 weeks (last NP PCR was on D42 and last SARS-CoV-2 IgG serology was on D45). The well-defined epidemiologic history around a major holiday and the timing (3-7 days) of development of symptoms in both children, confirmed that they both had Covid-19.
Two parents ([…], A1, and parent 39 years, A2) residing in Los Angeles, California were notified on Dec. 5, 2020 (defined as day 5 (D5); FIG. 8-a, C), that the schoolteacher (T1) of their child (C1) tested positive for SARS-CoV-2 and developed symptoms of Covid-19. C1 had 6-h exposure to T1 on November 30 (with masks) (DO). The family had no other exposure to any other person between November 20-30 (D-10 to DO) given Thanksgiving Day on November 26 (D-4). […]
One important consideration with COVID-19 testing is that it is often unclear how exactly the NP swab was obtained (by healthcare worker or not and whether the posterior or anterior nasopharynx were assessed). […]

For data set [5] the following is noted: humans, doses up to at least 80 mg/day for at least a year; cited from earlier work.
Data set [6] relates to Nrf2. As to the kind of experiment: Nrf2 protein levels in Calu3 cells (flow cytometry). The class given is cell-based, human. Conditions: infected and uninfected Calu3, pretreatment, data not shown.
Data set [7] relates to STING. As to the kind of experiment: STING protein levels in Calu3 cells (flow cytometry). Conditions: SARS-CoV-2 infected Calu3 cells, data not shown. The class given is cell-based, human.
For data set [8], the system named is SARS-CoV-2. Briefly: SARS-CoV-2 infection of K18-hACE2 transgenic mice, lung viral titer. Conditions: 4 mg/kg per day intraperitoneally, 72 h post infection. The class given is in vivo, mouse. The method, then: K18-hACE2 transgenic mice were infected with SARS-CoV-2 (10,000 PFU per mouse) intranasally and treated with Mito-MES (4 mg/kg per day intraperitoneally) (n=10) vs vehicle control (Ctrl) (saline 1% DMSO) (n=5 mice). Five mice (n=5) were treated with Mito-MES for 48 h before SARS-COV-2 infection and throughout the infection for 3 days (5 days in total) until mice were sacrificed 72 h post infection. Five mice (n=5) were treated with Mito-MES 8 h after the infection for 3 days (3 days in total) until mice were sacrificed 72 h post infection. The left lung was harvested from all mice, tissue was homogenized in mechanical dissociator and the supernatant was cryopreserved until it was used for viral titer. Viral titer was determined by two independent methods based on cytopathic effect (CPE) effect in Vero-E6 cells and based on an ELISA immunoassay that detected the presence of SARS-CoV-2 Spike S protein in Vero-E6 cells infected with lung supernatants from infected mice. FIG. 7-a summarizes the results of the viral replication by TCID50-assay based on CPE method. FIG. 7-b summarizes the results of the viral replication by TCID50-assay based on ELISA assay. Bars indicate mean±s.e.m.
The in vivo antiviral activity of Mito-MES was evaluated in mice. […] Specifically, K18-hACE2 transgenic mice, which express human ACE2, were infected with SARS-CoV-2.

Data set [9] deals with mitochondrial reactive oxygen species (mito-ROS). The data set is classed as cell-based, human.
Data set [10] concerns MX1. The data set is classed as cell-based, human. Conditions: infected Calu3, vs vehicle treated.
Data set [11] relates to MAVS. Briefly: MAVS protein levels in Calu3 cells (flow cytometry). The class given is cell-based, human. Conditions: total and SARS-CoV-2 infected Calu3 cells, data not shown.

`COC1=C(OC)C(=O)C(CCCCCCCCCC[P+](c2ccccc2)(c2ccccc2)c2ccccc2)=C(C)C1=O.CS(=O)(=O)[O-]` [Mito-MES, 10-(4,5-dimethoxy-2-methyl-3,6-dioxo-1,4-cyclohexadienyl) decyl triphenylphosphonium methanesulfonate]: the “percent of SARS-CoV-2 infected cells (flow cytometry)” value in data set [1] was “significantly reduced the percent of SARS-CoV-2 infected human non-cancerous HEK293T epithelial cells”. The “antiviral activity by immunofluorescence (spike S protein)” value in data set [2] was “modest antiviral activity”. The “viral genomic RNA in cell lysates (qPCR)” value in [2] (Vero cells) was “confirmed by qPCR”. Besides, the “percent of infected cells positive for N protein and Spike S protein (flow cytometry)” value in data set [2] (Vero cells, viable single cells) is “reduced the percent of infected cells”. The “antiviral activity relative to positive control remdesivir (TCID50)” value in data set [2] (Vero cells, vs 5 μM remdesivir) is “modest compared to 5 μM remdesivir”. The “percent of infected cells positive for cleaved caspase 3 and MFI per cell (flow cytometry)” value in data set [3] (Calu3, 100 nM) is given as “inhibits or reduces SARS-CoV-2-induced increase”. The “SARS-CoV-2-induced cleavage of caspase 3 (immunofluorescence)” value in data set [3] (Calu3, 10-1000 nM) was “reduced by Mito-MES treatment”. In data set [4] (both parents, 6 timepoints over 6 weeks), the “inflammation markers in plasma” value was “normal CRP, ferritin and IL-6 plasma levels”. Also, the “plasma IgG to SARS-CoV-2 S1 protein” value in data set [4] (each parent, three timepoints over 5 weeks) is listed as “undetectable levels of plasma IgG to SARS-CoV-2 S1 protein”. Moreover, the “symptoms and virological/serological confirmation of infection” value in [4] (two parents, 20 mg/day oral, 6 weeks, repeated household exposure) is “remained asymptomatic and without virological and serological confirmation of infection”. For the same molecule, the adverse events entry in [5] is “without any serious adverse events”. Moreover, the “protein levels of Nrf2” value in [6] is reported as “did not impact protein levels of Nrf2”. The STING protein levels entry in [7] is “did not impact STING”. The “lung viral titers (TCID50 by CPE and ELISA) compared to vehicle” value in [8] was “viral titers were lower”. The “mito-ROS generation (MitoSOX Red MFI and percent positive cells)” value in data set [9] was “reduced mito-ROS generation”. The MX1 protein levels entry in data set [10] was “increased MX1 protein levels”. Moreover, in [11], the MAVS protein levels result is recorded as “did not modulate MAVS protein levels”.
